Experiments:
[1] = system: Masugi's nephritis; assay: Effect of TO-195 on Masugi's nephritis; format: in vivo, rat; conditions: oral
[2] = system: kallikrein; assay: anti-kallikrein activity, hydrolysis of TAME (tosylarginine methyl ester); format: biochemical
Protocol: The values in Table 1 represent molar concentrations (IC50) of test compounds which inhibit 50% of the activity of each enzyme to hydrolyze TAME (tosylarginine methyl ester). The anti-trypsin, anti-plasmin, anti-kallikrein and anti-thrombin activities were determined according to the method of Muramatsu et al. (J. Biochem. (1965), volume 58, page 214).

[3] = target: T1, C1r (Homo sapiens, UniProt P00736); assay: anti-complement (anti-C1 esterase) activity, C1r hydrolysis of AAME (acetyl-arginine methyl ester); format: biochemical
T1 sequence (P00736 18-705): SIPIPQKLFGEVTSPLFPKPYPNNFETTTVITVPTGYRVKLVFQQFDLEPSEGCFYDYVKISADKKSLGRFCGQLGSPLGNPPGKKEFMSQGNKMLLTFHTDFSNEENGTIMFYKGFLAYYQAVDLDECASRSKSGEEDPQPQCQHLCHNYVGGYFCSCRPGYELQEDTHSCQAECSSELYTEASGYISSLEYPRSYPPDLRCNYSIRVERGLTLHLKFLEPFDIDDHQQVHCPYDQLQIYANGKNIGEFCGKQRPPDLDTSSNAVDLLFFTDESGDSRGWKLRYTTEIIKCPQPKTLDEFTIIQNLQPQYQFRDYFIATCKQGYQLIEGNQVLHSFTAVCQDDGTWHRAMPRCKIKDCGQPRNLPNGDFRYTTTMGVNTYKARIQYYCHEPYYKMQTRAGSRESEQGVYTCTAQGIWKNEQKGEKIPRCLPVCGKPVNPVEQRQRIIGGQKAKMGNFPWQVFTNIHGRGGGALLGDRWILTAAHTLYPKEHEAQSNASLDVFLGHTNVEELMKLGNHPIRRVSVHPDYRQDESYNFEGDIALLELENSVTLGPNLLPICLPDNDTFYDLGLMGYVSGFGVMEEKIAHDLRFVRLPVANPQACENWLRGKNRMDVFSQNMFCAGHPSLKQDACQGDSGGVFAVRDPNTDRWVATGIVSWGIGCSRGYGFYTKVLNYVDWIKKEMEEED

[4] = system: adjuvant arthritis; assay: Effectiveness in treating adjuvant arthritis (Mycobacterium butyricum); format: in vivo, rat; conditions: 60 mg/kg, oral, day -1 to day 13
Protocol: Adjuvant arthritis is known as a representative model of autoimmune diseases and is a effective means of testing agents to treat human rheumatoid arthritis (Encyclopedia of Immunology, edited by I. M. Roitt, Academic Press, 1992; Otterness, I. G., et al., J. of Rheumatology (1991), volume 18, pages 505-511),
The method of experiment was as follows. A 0.6% Mycobacterium butyricum liquid paraffin suspension, 0.1 ml/animal, was administered to a rat at a subcutaneous site of left hind-limb sole to induce adjuvant arthritis. The present compound was orally administered (in the form of a suspension in water) consecutively from 1 day before the induction to 13 days after the induction. The efficacy of the present compound on adjuvant arthritis was evaluated by examining the swelling accompanied by red spots and subcutaneous knots at the fore-limb, hind-limb, tail, ear and periphery of eye with the lapse of days (on the 8th, 10th, 12th, 14th, 16th and 18th days after adjuvant administration), expressing the results in terms of scores according to the method of F. D. Wood et al. (Int. Arch. Allergy (1969), volume 35, pages 456-467), and calculating the percentage inhibition relative to the control group. Thus, the higher value of percentage inhibition indicates the higher effectiveness.

[5] = monkey subacute toxicity test; format: in vivo; conditions: oral
Protocol: The compound of Example 22 was tested in three groups (five monkeys per group) of monkeys at dosages of (1) 3 mg/kg/day, (2) 30 mg/kg/day, and (3) 300 mg/kg/day; the compound was administered orally (dose volume was 2 ml/kg) by gavage once a day for 13 weeks. Administration was followed by 20 ml sterile water per animal. Control monkeys received only the vehicle (sterile water for injection, U.S.P.) on the same regimen as the experimental groups. All doses were administered using a 18 French rubber catheter attached to a syringe.

[6] = in vivo; conditions: rat
Protocol: In the rat acute toxicity test, the LD50 was greater than 2,000 mg/kg (p.o. oral administration). The compound of Example 22 was tested in three groups.(five rats per group) of rats at dosages of (1) 2000 mg/kg, (2) 1000 mg/kg, and (3) 500 mg/kg; the compound was prepared in the form of a suspension in distilled water and administered orally.

[7] = target: T2, trypsin (Bos taurus, UniProt P00760); assay: anti-trypsin activity, hydrolysis of TAME (tosylarginine methyl ester); format: biochemical
T2 sequence (P00760 24-246): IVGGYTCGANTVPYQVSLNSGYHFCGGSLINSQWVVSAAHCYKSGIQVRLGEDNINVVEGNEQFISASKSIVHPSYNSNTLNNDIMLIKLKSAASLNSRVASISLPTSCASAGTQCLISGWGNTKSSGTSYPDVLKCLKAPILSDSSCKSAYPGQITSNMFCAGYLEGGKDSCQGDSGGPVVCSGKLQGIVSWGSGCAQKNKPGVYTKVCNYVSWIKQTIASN

Cl.N=C(N)c1ccc2cc(OC(=O)c3ccc(CNC(=O)CCCC(=O)O)o3)ccc2c1 [Example 22, 6-Amidino-2-naphthyl 5-(4-carboxybutyrylaminomethyl)furan-2-carboxylate hydrochloride]
urinary protein excretion (in words) ([1]; 3, 10, or 30 mg/kg×2/day, from 2 days before through day 10 after nephrotoxin): significantly decreased urinary protein excretion | Light microscopic examination of the glomeruli (in words) ([1]; 10 and 30 mg/kg×2/day, compared to control group): significant anti-nephritic effect | urinary protein excretion (in words) ([1]; twice a day from day 4 to day 10 after nephrotoxin): significantly decreased urinary protein excretion | kallikrein inhibition (in words) [2]: inhibitor | IC50 ([2]; hydrolysis of TAME, read-out: Kal: molar concentration inhibiting 50% of enzyme activity (IC50)): 470 nM | C1r inhibition (in words) [3]: inhibitor | inhibition at 10 µM ([3]; at a concentration of 1 × 10^-5 M, read-out: Clr: percentage inhibition): 49% | Percentage inhibition (arthritis score) [4]: 97.3% | general conditions, biochemical examination, and survival (in words) ([5]; 13 weeks, up to 300 mg/kg/day): no changes were found | toxicity (in words) ([5]; three months, even at 300 mg/kg): no toxicity was recognized | LD50 at 336 h ([6]; in vivo, po): > 2000 mg/kg | general conditions and survival (in words) ([6]; oral, up to 2,000 mg/kg, two weeks observation): no changes were found | trypsin inhibition (in words) [7]: inhibitor | IC50 ([7]; hydrolysis of TAME, read-out: Try: molar concentration inhibiting 50% of enzyme activity (IC50)): 430 nM

Reference: US5532267A, “Amidinonaphthyl furancarboxylate derivatives and acid addition salts therof” (Torii & Co., Ltd., priority 1992, dated 1996)
